Conditions: Liquid, Transpiration method

CC(=O)CCC(=O)O [4-oxopentanoic acid]
Conditions	vapor or sublimation pressure [kPa]
328.4 K	0.00705
333.4 K	0.01045
338.3 K	0.01414
343.3 K	0.02096
343.4 K	0.02019
348.3 K	0.02702
353.3 K	0.0381
358.3 K	0.05278
358.4 K	0.05148
363.4 K	0.07587
368.4 K	0.101
373.4 K	0.1349
